Measurements published in patent EP0183129A1, “Quinolonecarboxylic acid derivatives” (KYORIN PHARMACEUTICAL CO., LTD., priority 1984, dated 1986).
Counter-ions that a name gives are not always drawn. Like-named read-outs stand apart in the source and are kept apart here.

Key:
[1] = test system: Bacillus subtilis PCI 219; assay: In vitro antibacterial activity, MIC (standard strain); format: cell-based; conditions: PCI219
[2] = test system: Staphylococcus aureus 209 P; assay: as above; format: cell-based
[3] = test system: S. aureus IID 670 (Terajima); assay: as above; format: cell-based, Staphylococcus aureus; conditions: Staphylococcus aureus
[4] = test system: Streptococcus pyogenes S-8; assay: as above; format: cell-based; conditions: S8; Streptococcus pyogenes S-8; 10^6 cells/ml; standard strain; read-out: MIC
S. pyogenes IID 692 = assay: as above; format: cell-based; conditions: Streptococcus pyogenes, IID692; S. pyogenes IID 692; 10^6 cells/ml; standard strain; read-out: MIC
S. pneumoniae IID 552 = assay: as above; format: cell-based; conditions: Streptococcus pneumoniae, IID552; S. pneumoniae IID 552; 10^6 cells/ml; standard strain; read-out: MIC
[5] = test system: Escherichia coli NIHJ JC-2; assay: as above; format: cell-based; conditions: Escherichia coli
E. coli ATCC 10536 = assay: as above; format: cell-based; conditions: Escherichia coli, ATCC10536
P. mirabilis IID 994 = assay: as above; format: cell-based; conditions: Proteus mirabilis, IID994; P. mirabilis IID 994; 10^6 cells/ml; standard strain; read-out: MIC
[6] = test system: Morganella morganii IID 602; assay: as above; format: cell-based; conditions: IID602; Morganella morganii IID 602; 10^6 cells/ml; standard strain; read-out: MIC
[7] = test system: Enterobacter cloacae IID 977; assay: as above; format: cell-based; conditions: Enterobacter cloacae, IID977, Enterobacter cloacae IID 977; 10^6 cells/ml; standard strain; read-out: MIC
[8] = test system: Salmonella entritidis IID 604; assay: as above; format: cell-based; conditions: IID604; Salmonella entritidis IID 604; 10^6 cells/ml; standard strain; read-out: MIC
Shigella sonnei IID 969 = assay: as above; format: cell-based; conditions: IID969, 10^6 cells/ml
Description: Experiment-1 In vitro antibacterial activity
The in vitro antibacterial activity against gram-positive and gram-negative bacteria has been investivated.
The minimum inhibitory concentration (MIC) was determined in accordance with the method recommended by Japan Society of Chemotherapy.

[9] = test system: Pseudomonas aeruginosa V-1; assay: as above; format: cell-based; conditions: V1
P. aeruginosa IID 1210 = assay: as above; format: cell-based; conditions: Pseudomonas aeruginosa, IID1210; P. aeruginosa IID 1210; 10^6 cells/ml; standard strain; read-out: MIC
[10] = test system: Bacteroides fragilis GM 7000; assay: as above; format: cell-based; conditions: GM7000; Bacteroides fragilis GM 7000; 10^6 cells/ml; standard strain; read-out: MIC
B. fragilis 0558 = assay: as above; format: cell-based, Bacteroides fragilis; conditions: Bacteroides fragilis, 0558, B. fragilis 0558; 10^6 cells/ml; standard strain; read-out: MIC
[11] = test system: Fusobacterium varium KYA 8501; assay: as above; format: cell-based; conditions: Fusobacterium varium, KYA8501, Fusobacterium varium KYA 8501; 10^6 cells/ml; standard strain; read-out: MIC
[12] = test system: Clostridium perfringens KYA 13123; assay: microbe, parasite or virus in culture; format: cell-based; conditions: KYA13123
S. pneumoniae 3227 = assay: In vitro antibacterial activity, MIC (clinical isolates); format: cell-based; conditions: Streptococcus pneumoniae; S. pneumoniae 3227; 10^6 cells/ml; clinical isolate; read-out: MIC
S. agalactiae 4049 = assay: as above; format: cell-based; conditions: Streptococcus agalactiae; S. agalactiae 4049; 10^6 cells/ml; clinical isolate; read-out: MIC
S. agalactiae 4468 = assay: as above; format: cell-based; conditions: Streptococcus agalactiae; S. agalactiae 4468; 10^6 cells/ml; clinical isolate; read-out: MIC
S. faecalis 401 = assay: as above; format: cell-based; conditions: Enterococcus faecalis; S. faecalis 401; 10^6 cells/ml; clinical isolate; read-out: MIC
S. faecalis 402 = assay: as above; format: cell-based; conditions: Enterococcus faecalis; S. faecalis 402; 10^6 cells/ml; clinical isolate; read-out: MIC
E. coli ML4707 = assay: In vivo antibacterial activity against systemic infection in mice; parameters: species or system mice (ICR-S); conditions: Escherichia coli, ML4707; mice (ICR-S); oral, an hour after intraperitoneal infection; challenge dose 2.7 x 10^6 ~ 8.8 x 10^6 cfu/mouse; read-out: ED50 E. coli ML4707
Description: Experiment-2 In vivo antibacterial activity against systemic infection in mice (ICR-S)
The infections were produced by intraperitoneal injection of a suspension of the bacterial culture corresponding to the germ studied. The products were administered orally at an hour after the infection.

[13] = Bacillus subtilis PCI 219, 10^6 cells/ml, standard strain, read-out: MIC
[14] = Staphylococcus aureus 209 P, 10^6 cells/ml, standard strain, read-out: MIC
[15] = IID670, S. aureus IID 670 (Terajima), 10^6 cells/ml, standard strain, read-out: MIC
[16] = NIHJJC2, Escherichia coli NIHJ JC-2, 10^6 cells/ml, standard strain, read-out: MIC
[17] = E. coli ATCC 10536, 10^6 cells/ml, standard strain, read-out: MIC
[18] = Pseudomonas aeruginosa V-1, 10^6 cells/ml, standard strain, read-out: MIC

SMILES | MIC [1, 13] | MIC [2, 14] | MIC [4] | MIC (S. pyogenes IID 692) | MIC (S. pneumoniae IID 552) | MIC (P. mirabilis IID 994) | MIC [6] | MIC [7] | MIC [8] | MIC (Shigella sonnei IID 969) | MIC (P. aeruginosa IID 1210) | MIC [10] | MIC (B. fragilis 0558) | MIC [11] | MIC [12] | MIC (S. pneumoniae 3227) | MIC (S. agalactiae 4049) | MIC (S. agalactiae 4468) | MIC (S. faecalis 401) | MIC (S. faecalis 402) | other results
CCNCC1CCN(c2cc3c(cc2F)c(=O)c(C(=O)O)cn3C2CC2)C1.Cl (stereo not shown) [Example 7, 1-Cyclopropyl-7-(3-ethylaminomethyl-1-pyrrolidinyl)-6-fluoro-1,4-dihydro-4-oxo-3-quinolinecarboxylic acid hydrochloride] | 0.025 µg/mL | 0.1 µg/mL | 0.39 µg/mL | 0.39 µg/mL | 0.39 µg/mL | 0.2 µg/mL | 0.39 µg/mL | 0.39 µg/mL | 0.2 µg/mL | 0.05 µg/mL | 3.13 µg/mL | 25 µg/mL | 25 µg/mL | 12.5 µg/mL | 0.2 µg/mL | 0.39 µg/mL | 0.78 µg/mL | 0.39 µg/mL | 0.78 µg/mL | 0.78 µg/mL | MIC [3, 15]: 0.1 µg/mL; MIC [5, 16]: 0.05 µg/mL; MIC (E. coli ATCC 10536; [17]): 0.05 µg/mL; MIC [9, 18]: 1.56 µg/mL
CNCC1CCN(c2cc3c(cc2F)c(=O)c(C(=O)O)cn3C2CC2)C1 (stereo not drawn) [Example 9, 1-Cyclopropyl-6-fluoro-1,4-dihydro-7-(3-methylaminomethyl-l-pyrrolidinyl)-4-oxo-3-quinolinecarboxylic acid hydrochloride] | 0.05 µg/mL | 0.2 µg/mL | 0.2 µg/mL | 0.2 µg/mL | 0.39 µg/mL | 0.39 µg/mL | 0.78 µg/mL | 0.39 µg/mL | 0.2 µg/mL | 0.1 µg/mL | 3.13 µg/mL | 25 µg/mL | 12.5 µg/mL | 25 µg/mL | 1.56 µg/mL | 0.39 µg/mL | 0.78 µg/mL | 0.39 µg/mL | 0.78 µg/mL | 0.78 µg/mL | MIC [3, 15]: 0.2 µg/mL; MIC [5, 16]: 0.05 µg/mL; MIC (E. coli ATCC 10536; [17]): 0.1 µg/mL; MIC ([9]; Pseudomonas aeruginosa): 1.56 µg/mL
CCCNCC1CCN(c2c(F)cc3c(=O)c(C(=O)O)cn(C4CC4)c3c2F)C1 (stereo not drawn) [Example 10, 1-Cyclopropyl-6,8-difluoro-1,4-dihydro-4-oxo-7-(3-n-propylaminomethyl-l-pyrrolidinyl)-3-quinolinecarboxylic acid hydrochloride] | 0.0125 µg/mL | 0.05 µg/mL | 0.39 µg/mL | 0.39 µg/mL | 0.39 µg/mL | 0.025 µg/mL | 0.025 µg/mL | 0.2 µg/mL | 0.1 µg/mL | 0.025 µg/mL | 3.13 µg/mL | 1.56 µg/mL | 0.78 µg/mL | 6.25 µg/mL | 0.39 µg/mL | 0.2 µg/mL | 0.78 µg/mL | 0.39 µg/mL | 0.78 µg/mL | 0.39 µg/mL | MIC [3, 15]: 0.05 µg/mL; MIC [5, 16]: 0.05 µg/mL; MIC (E. coli ATCC 10536; [17]): 0.1 µg/mL; MIC [9, 18]: 1.56 µg/mL
CC(C)NCC1CCN(c2c(F)cc3c(=O)c(C(=O)O)cn(C4CC4)c3c2F)C1.Cl (stereo not shown) [Example 11, 1-Cyclopropyl-6,8-difluoro-1,4-dihydro-7-(3-isopropylaminomethyl-1-pyrrolidinyl)-4-oxo-3-quinolinecarboxylic acid hydrochloride] | 0.025 µg/mL | 0.05 µg/mL | 0.2 µg/mL | 0.2 µg/mL | 0.39 µg/mL | 0.1 µg/mL | 0.39 µg/mL | 0.39 µg/mL | 0.2 µg/mL | 0.05 µg/mL | 3.13 µg/mL | 1.56 µg/mL | 0.78 µg/mL | 3.13 µg/mL | 0.2 µg/mL | 0.39 µg/mL | 0.39 µg/mL | 0.2 µg/mL | 0.39 µg/mL | 0.39 µg/mL | MIC [3, 15]: 0.05 µg/mL; MIC [5, 16]: 0.05 µg/mL; MIC (E. coli ATCC 10536; [17]): 0.05 µg/mL; MIC [9, 18]: 1.56 µg/mL
NCC1CCN(c2c(F)cc3c(=O)c(C(=O)O)cn(C4CC4)c3c2Cl)C1 (stereo not drawn) [Example 14, 8-Chloro-l-cyclopropyl-6-fluoro-l,4-dihydro-7-(3-aminomethyl-l-pyrrolidinyl)-4-oxo-3-quinolinecarboxylic acid hydrochloride] |  |  | 0.05 µg/mL | 0.05 µg/mL | 0.025 µg/mL | 0.025 µg/mL | 0.05 µg/mL | 0.05 µg/mL | 0.025 µg/mL | 0.0125 µg/mL | 0.39 µg/mL | 0.1 µg/mL | 0.05 µg/mL | 0.39 µg/mL | 0.05 µg/mL | 0.05 µg/mL | 0.05 µg/mL | 0.05 µg/mL | 0.05 µg/mL | 0.05 µg/mL | MIC ([1]; Bacillus subtilis): 0.0125 µg/mL; MIC ([2]; Staphylococcus aureus, 209P): 0.0125 µg/mL; MIC ([3]; IID670): 0.0125 µg/mL; MIC ([5]; NIHJJC2): 0.0125 µg/mL; MIC (E. coli ATCC 10536): 0.0125 µg/mL; MIC [9, 18]: 0.2 µg/mL; ED50 (E. coli ML4707): 5.4 mg/kg
